The NIST ThermoML archive (doi:10.1016/j.jct.2012.05.003)
± gives the expanded uncertainty stated by the source.

Experiments:
[1] = for molar entropy: Vacuum adiabatic calorimetry
[2] = Molar enthalpy of transition or fusion; details: Crystal; Adiabatic calorimetry

## O=C1c2ccccc2-c2ccccc21 [9(9H)-fluorenone]
[1]; 5 K, 101.33 kPa, Crystal
  molar entropy: 0.2 ± 0.017 J/K/mol
[1]; 10 K, 101.33 kPa, Crystal
  molar entropy: 1.47 ± 0.025 J/K/mol
[1]; 20 K, 101.33 kPa, Crystal
  molar entropy: 7.81 ± 0.083 J/K/mol
[1]; 30 K, 101.33 kPa, Crystal
  molar entropy: 16.59 ± 0.083 J/K/mol
[1]; 40 K, 101.33 kPa, Crystal
  molar entropy: 26.02 ± 0.11 J/K/mol
[1]; 50 K, 101.33 kPa, Crystal
  molar entropy: 35.44 ± 0.13 J/K/mol
[1]; 60 K, 101.33 kPa, Crystal
  molar entropy: 44.68 ± 0.16 J/K/mol
[1]; 70 K, 101.33 kPa, Crystal
  molar entropy: 53.57 ± 0.17 J/K/mol
[1]; 80 K, 101.33 kPa, Crystal
  molar entropy: 62.15 ± 0.2 J/K/mol
[1]; 90 K, 101.33 kPa, Crystal
  molar entropy: 70.45 ± 0.32 J/K/mol
[1]; 100 K, 101.33 kPa, Crystal
  molar entropy: 78.48 ± 0.32 J/K/mol
[1]; 120 K, 101.33 kPa, Crystal
  molar entropy: 93.91 ± 0.34 J/K/mol
[1]; 140 K, 101.33 kPa, Crystal
  molar entropy: 108.7 ± 0.37 J/K/mol
[1]; 160 K, 101.33 kPa, Crystal
  molar entropy: 123.08 ± 0.39 J/K/mol
[1]; 180 K, 101.33 kPa, Crystal
  molar entropy: 137.18 ± 0.42 J/K/mol
[1]; 200 K, 101.33 kPa, Crystal
  molar entropy: 151.1 ± 0.43 J/K/mol
[1]; 220 K, 101.33 kPa, Crystal
  molar entropy: 164.93 ± 0.46 J/K/mol
[1]; 240 K, 101.33 kPa, Crystal
  molar entropy: 178.73 ± 0.48 J/K/mol
[1]; 260 K, 101.33 kPa, Crystal
  molar entropy: 192.51 ± 0.51 J/K/mol
[1]; 280 K, 101.33 kPa, Crystal
  molar entropy: 206.3 ± 0.53 J/K/mol
[1]; 298.15 K, 101.33 kPa, Crystal
  molar entropy: 218.82 ± 0.55 J/K/mol
[1]; 300 K, 101.33 kPa, Crystal
  molar entropy: 220.1 ± 0.56 J/K/mol
[1]; 320 K, 101.33 kPa, Crystal
  molar entropy: 233.91 ± 0.58 J/K/mol
[1]; 340 K, 101.33 kPa, Crystal
  molar entropy: 247.73 ± 0.61 J/K/mol
[1]; 340 K, 101.33 kPa, Liquid
  molar entropy: 291.47 ± 0.68 J/K/mol
[1]; 356.52 K, 101.33 kPa, Crystal
  molar entropy: 259.19 ± 0.62 J/K/mol
[1]; 356.52 K, 101.33 kPa, Liquid
  molar entropy: 305.07 ± 0.71 J/K/mol
[1]; 360 K, 101.33 kPa, Liquid
  molar entropy: 307.89 ± 0.71 J/K/mol
[1]; 368.12 K, Liquid, Inclined piston gauge
  vapor or sublimation pressure: 0.0161 ± 0.0008 kPa
[1]; 373 K, 101.33 kPa, Liquid, Pycnometric method
  mass density: 1090 ± 10 kg/m3
[1]; 378.12 K, Liquid, Inclined piston gauge
  vapor or sublimation pressure: 0.0308 ± 0.0008 kPa
[1]; 380 K, 101.33 kPa, Liquid
  molar entropy: 323.92 ± 0.74 J/K/mol
[1]; 388.12 K, Liquid, Inclined piston gauge
  vapor or sublimation pressure: 0.0562 ± 0.0009 kPa
[1]; 398.12 K, Liquid, Inclined piston gauge
  vapor or sublimation pressure: 0.0987 ± 0.0009 kPa
[1]; 400 K, 101.33 kPa, Liquid
  molar entropy: 339.6 ± 0.76 J/K/mol
[1]; 408.12 K, Liquid, Inclined piston gauge
  vapor or sublimation pressure: 0.1672 ± 0.0009 kPa
[1]; 418.12 K, Liquid, Inclined piston gauge
  vapor or sublimation pressure: 0.2744 ± 0.001 kPa
[1]; 420 K, 101.33 kPa, Liquid
  molar entropy: 354.94 ± 0.79 J/K/mol
[1]; 428.11 K, Liquid, Inclined piston gauge
  vapor or sublimation pressure: 0.4382 ± 0.0013 kPa
[1]; 438.11 K, Liquid, Inclined piston gauge
  vapor or sublimation pressure: 0.6825 ± 0.0015 kPa
[1]; 440 K, 101.33 kPa, Liquid
  molar entropy: 369.98 ± 0.82 J/K/mol
[1]; 448.11 K, Liquid, Inclined piston gauge
  vapor or sublimation pressure: 1.038 ± 0.0019 kPa
[1]; 458.11 K, Liquid, Inclined piston gauge
  vapor or sublimation pressure: 1.544 ± 0.0023 kPa
[1]; 460 K, 101.33 kPa, Liquid
  molar entropy: 384.73 ± 0.85 J/K/mol
[1]; 464.96 K, Liquid, Twin ebulliometer
  vapor or sublimation pressure: 2 ± 0.008 kPa
[1]; 468.11 K, Liquid, Inclined piston gauge
  vapor or sublimation pressure: 2.25 ± 0.003 kPa
[1]; 472.82 K, Liquid, Twin ebulliometer
  vapor or sublimation pressure: 2.666 ± 0.0082 kPa
[1]; 478.11 K, Liquid, Inclined piston gauge
  vapor or sublimation pressure: 3.216 ± 0.0039 kPa
[1]; 480 K, 101.33 kPa, Liquid
  molar entropy: 399.2 ± 0.87 J/K/mol
[1]; 483.11 K, Liquid, Inclined piston gauge
  vapor or sublimation pressure: 3.821 ± 0.0045 kPa
[1]; 493.2 K, Liquid, Twin ebulliometer
  vapor or sublimation pressure: 5.333 ± 0.0086 kPa
[1]; 500 K, 101.33 kPa, Liquid
  molar entropy: 413.42 ± 0.9 J/K/mol
[1]; 506.16 K, Liquid, Twin ebulliometer
  vapor or sublimation pressure: 7.999 ± 0.0093 kPa
[1]; 515.86 K, Liquid, Twin ebulliometer
  vapor or sublimation pressure: 10.67 ± 0.01 kPa
[1]; 520 K, 101.33 kPa, Liquid
  molar entropy: 427.39 ± 0.92 J/K/mol
[1]; 523.7 K, Liquid, Twin ebulliometer
  vapor or sublimation pressure: 13.33 ± 0.011 kPa
[1]; 531.86 K, Liquid, Twin ebulliometer
  vapor or sublimation pressure: 16.66 ± 0.012 kPa
[1]; 538.62 K, Liquid, Twin ebulliometer
  vapor or sublimation pressure: 19.93 ± 0.014 kPa
[1]; 547.52 K, Liquid, Twin ebulliometer
  vapor or sublimation pressure: 25.02 ± 0.016 kPa
[1]; 547.53 K, Liquid, Twin ebulliometer
  vapor or sublimation pressure: 25.02 ± 0.015 kPa
[1]; 556.48 K, Liquid, Twin ebulliometer
  vapor or sublimation pressure: 31.17 ± 0.018 kPa
[1]; 565.49 K, Liquid, Twin ebulliometer
  vapor or sublimation pressure: 38.56 ± 0.021 kPa
[1]; 574.56 K, Liquid, Twin ebulliometer
  vapor or sublimation pressure: 47.37 ± 0.025 kPa
[1]; 583.67 K, Liquid, Twin ebulliometer
  vapor or sublimation pressure: 57.81 ± 0.028 kPa
[1]; 592.85 K, Liquid, Twin ebulliometer
  vapor or sublimation pressure: 70.11 ± 0.033 kPa
[1]; 602.07 K, Liquid, Twin ebulliometer
  vapor or sublimation pressure: 84.53 ± 0.038 kPa
[1]; 611.34 K, Liquid, Twin ebulliometer
  vapor or sublimation pressure: 101.32 ± 0.05 kPa
[1]; 620.67 K, Liquid, Twin ebulliometer
  vapor or sublimation pressure: 120.78 ± 0.05 kPa
[1]; 630.05 K, Liquid, Twin ebulliometer
  vapor or sublimation pressure: 143.23 ± 0.06 kPa
[1]; 639.47 K, Liquid, Twin ebulliometer
  vapor or sublimation pressure: 169 ± 0.07 kPa
[1]; 648.95 K, Liquid, Twin ebulliometer
  vapor or sublimation pressure: 198.46 ± 0.07 kPa
[1]; 658.48 K, Liquid, Twin ebulliometer
  vapor or sublimation pressure: 231.99 ± 0.08 kPa
[1]; 668.07 K, Liquid, Twin ebulliometer
  vapor or sublimation pressure: 269.98 ± 0.09 kPa
[1]; Crystal, Adiabatic calorimetry
  Triple point temperature: 356.52 ± 0.039 K
[2]
  Molar enthalpy of transition or fusion: 3.9101 ± 0.00335 kcal/mol
